Experimental data: the supplement of paper PMC10307832

Columns and labels:
Test in all cases: relative viability (nuclei count vs DMSO), 5 days (fraction); higher = more cells survive
[1] = compound: O=C(NCCCNc1nc(Nc2cccc(NC(=O)N3CCCC3)c2)ncc1I)c1cccs1 [BX 795] + CS(=O)(=O)CCNCc1ccc(-c2ccc3ncnc(Nc4ccc(OCc5cccc(F)c5)c(Cl)c4)c3c2)o1 [Lapatinib] (partner 2 µM)
Outline: (§1)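 Relative viability equals treated-well nuclei counts divided by vehicle-well nuclei counts. Counts came from 4× images of lung cancer cell lines grown in 1536-well plates for 5 days after pin-tool dosing on the day after seeding. Dosing used one drug alone or a fixed anchor-drug dose plus five library-drug doses (not always all listed) in √10 steps, and values are medians of duplicate plates.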

[2] = compound: O=C(NCCCNc1nc(Nc2cccc(NC(=O)N3CCCC3)c2)ncc1I)c1cccs1 [BX 795] + C[C@@H](Oc1cc(-c2cnn(C3CCNCC3)c2)cnc1N)c1c(Cl)ccc(F)c1Cl [Crizotinib] (partner 1 µM)
Outline: as §1

[3] = compound: O=C(NCCCNc1nc(Nc2cccc(NC(=O)N3CCCC3)c2)ncc1I)c1cccs1 [BX 795] + O=C(CCCCCCC(=O)Nc1ccccc1)NO [Vorinostat] (partner 1 µM)
Outline: as §1

[4] = compound: O=C(NCCCNc1nc(Nc2cccc(NC(=O)N3CCCC3)c2)ncc1I)c1cccs1 [BX 795] + CCNC(=O)c1noc(-c2cc(C(C)C)c(O)cc2O)c1-c1ccc(CN2CCOCC2)cc1 [Luminespib] (partner 0.01 µM)
Outline: as §1

[5] = compound: O=C(NCCCNc1nc(Nc2cccc(NC(=O)N3CCCC3)c2)ncc1I)c1cccs1 [BX 795]
Outline: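 Five library-drug doses, separated by factors of √10, were pinned into 1536-well plates holding lung cancer cell lines after an overnight stay at 37 °C. Cells were fixed, permeabilised and Hoechst-stained in one step after 5 days without medium change, then imaged at 4×. Viability compares treated-well with vehicle-well nuclei, counted in MetaXpress, as a median across plates. Passing plates had control CV below 25% and at least one doubling.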

Row | Cell Line | relative viability ([1]; first compound 0.04 µM) | relative viability ([1]; first compound 0.1265 µM) | relative viability ([1]; first compound 0.4 µM) | relative viability ([1]; first compound 1.265 µM) | relative viability ([2]; first compound 0.04 µM) | relative viability ([2]; first compound 0.1265 µM) | relative viability ([2]; first compound 0.4 µM) | relative viability ([2]; first compound 1.265 µM) | relative viability ([3]; first compound 0.04 µM) | relative viability ([3]; first compound 0.1265 µM) | relative viability ([3]; first compound 0.4 µM) | relative viability ([3]; first compound 1.265 µM) | relative viability ([4]; first compound 0.04 µM) | relative viability ([4]; first compound 0.1265 µM) | relative viability ([4]; first compound 0.4 µM) | relative viability ([4]; first compound 1.265 µM) | relative viability ([5]; 0.04 µM) | relative viability ([5]; 0.1265 µM) | relative viability ([5]; 0.4 µM) | relative viability ([5]; 1.265 µM)
1 | 201T | 1.1 | 1.04 | 1.12 | 1.01 | 1.06 | 1.03 | 1.1 | 1.03 | 1.06 | 0.991 | 1.23 | 1.12 | 1.03 | 1.07 | 1.19 | 1.04 | 0.983 | 0.996 | 1.07 | 1.04
2 | A549 | 0.999 | 0.88 | 1 | 0.146 | 0.725 | 0.71 | 0.777 | 0.128 | – | – | – | – | – | – | – | – | 1.01 | 1.08 | 0.97 | 0.671
3 | A-427 | 0.842 | 1 | 1.06 | 0.886 | 0.906 | 0.924 | 0.771 | 0.446 | 0.915 | 0.812 | 0.872 | 0.754 | 0.779 | 0.866 | 0.643 | 0.665 | 1.08 | 0.905 | 0.998 | 0.808
4 | ABC-1 | 1.17 | 1.58 | 1.14 | 0.917 | 1.2 | 1.23 | 1.03 | 0.3 | 0.961 | – | 1.24 | 0.922 | 0.445 | 0.381 | 0.334 | 0.283 | 0.888 | 0.797 | 0.917 | 0.906
5 | BEN | 0.663 | 0.841 | 0.607 | 0.672 | 0.984 | 1.02 | 0.787 | 0.821 | 0.591 | 0.559 | 0.582 | 0.526 | 0.458 | 0.432 | 0.351 | 0.312 | 0.907 | 1.12 | 0.952 | 1.05
6 | CAL-12T | 0.738 | 0.624 | 0.608 | 0.29 | 0.562 | 0.426 | 0.309 | 0.333 | 0.661 | 0.715 | 0.523 | 0.413 | 0.534 | 0.488 | 0.194 | 0.181 | 0.949 | 0.992 | 0.882 | 0.623
7 | COR-L23 | 1.14 | 1.17 | 0.884 | 0.663 | 0.724 | 0.703 | 0.466 | 0.204 | 0.379 | 0.458 | 0.205 | 0.106 | 0.576 | 0.573 | 0.71 | 0.197 | 1.04 | 1.04 | 1.05 | 0.669
8 | COR-L 105 | 0.354 | 0.334 | 0.308 | 0.293 | 0.789 | 0.588 | 0.56 | 0.279 | 0.835 | 0.702 | 0.622 | 0.429 | 0.879 | 0.835 | 0.788 | 0.849 | 0.985 | 0.868 | 0.776 | 0.661
9 | ChaGo-K-1 | – | – | – | – | 1.11 | 1.14 | 1.05 | 0.961 | 0.809 | 0.771 | 0.725 | 0.668 | 0.503 | 0.523 | 0.602 | 0.492 | 0.947 | 1.06 | 0.959 | 0.981
10 | EKVX | 0.248 | 0.367 | 0.243 | 0.208 | 1.04 | 0.867 | 0.732 | 0.753 | 0.865 | 0.696 | 0.738 | 0.537 | 0.893 | 0.977 | 0.825 | 0.79 | 0.934 | 0.975 | 0.883 | 0.93
11 | EMC-BAC-2 | 0.907 | 0.905 | 0.884 | 0.758 | 0.724 | 0.733 | 0.631 | 0.525 | 0.393 | 0.261 | 0.411 | 0.198 | 1.18 | 1.22 | 1.13 | 0.492 | 0.978 | 0.843 | 0.951 | 0.633
12 | EPLC-272H | 1.01 | – | 0.893 | 0.677 | 0.984 | – | 0.922 | 0.813 | 0.533 | 0.472 | 0.354 | 0.219 | 0.342 | 0.187 | 0.158 | 0.292 | 1.01 | 0.899 | 0.885 | 0.748
13 | H3255 | 0.289 | 0.234 | 0.256 | 0.255 | 0.903 | 0.831 | 0.852 | 0.644 | 0.79 | 0.797 | 0.938 | 0.754 | 0.891 | 0.852 | 0.979 | 0.891 | 0.985 | 1.07 | 1.02 | 0.949
14 | HARA | 0.714 | 0.564 | 0.753 | 0.697 | 1.21 | 1.06 | 1 | 0.601 | 0.523 | 0.595 | 0.447 | 0.482 | 0.588 | 0.838 | 0.907 | 0.656 | 0.921 | 0.81 | 0.975 | 0.947
15 | HCC-15 | 0.721 | 0.871 | 0.795 | 0.661 | 0.784 | 0.883 | 0.743 | 0.461 | 0.773 | 0.865 | 0.818 | 0.718 | 0.346 | 0.298 | 0.298 | 0.408 | 0.967 | 1.05 | 0.973 | 0.804
16 | HCC-44 | 0.934 | 1.01 | 0.981 | 1.04 | 0.811 | 0.876 | 0.973 | 0.581 | 1.08 | 1.12 | 1.18 | 1.07 | 0.98 | 1.37 | 0.497 | 0.58 | 0.908 | 0.967 | 1.07 | 1.06
